Laboratory results published in patent US11612595B2, “Compositions and methods for treating rheumatoid arthritis” (Generos Biopharma Ltd., priority 2017, dated 2023).

What was measured:
SH2 domain of STAT1 = molecular target: T1, SH2 domain of STAT1 (Homo sapiens, UniProt P42224); details: read-out: IC50 towards the SH2 domain of STAT1; cited from earlier work
T1 sequence (P42224 1-750): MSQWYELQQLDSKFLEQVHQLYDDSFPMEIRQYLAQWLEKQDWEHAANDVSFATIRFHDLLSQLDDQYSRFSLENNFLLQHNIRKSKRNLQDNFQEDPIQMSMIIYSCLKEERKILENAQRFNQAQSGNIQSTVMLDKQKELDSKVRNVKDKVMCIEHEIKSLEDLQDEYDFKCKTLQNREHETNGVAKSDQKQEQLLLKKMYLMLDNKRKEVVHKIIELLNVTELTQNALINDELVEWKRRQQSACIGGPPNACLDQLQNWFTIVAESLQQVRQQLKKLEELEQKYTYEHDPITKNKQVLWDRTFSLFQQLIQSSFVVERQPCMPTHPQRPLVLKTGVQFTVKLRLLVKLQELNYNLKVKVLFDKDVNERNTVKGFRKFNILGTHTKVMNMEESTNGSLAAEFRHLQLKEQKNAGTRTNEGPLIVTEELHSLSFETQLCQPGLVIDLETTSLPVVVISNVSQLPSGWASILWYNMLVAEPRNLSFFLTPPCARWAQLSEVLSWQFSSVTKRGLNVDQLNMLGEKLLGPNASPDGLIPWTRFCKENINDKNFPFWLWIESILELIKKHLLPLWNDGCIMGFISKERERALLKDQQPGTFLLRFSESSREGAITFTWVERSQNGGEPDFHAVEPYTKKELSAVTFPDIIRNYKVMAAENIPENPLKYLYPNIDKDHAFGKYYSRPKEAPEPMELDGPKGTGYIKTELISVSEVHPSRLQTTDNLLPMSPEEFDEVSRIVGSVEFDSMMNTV

SH2 domain of Lck = SH2 domain of Lck (Homo sapiens, UniProt P06239); details: read-out: IC50 towards the SH2 domain of Lck; cited from earlier work
[1] = test system: adjuvant-induced arthritis (AIA) rat model; experiment: AIA rat model, paw volume and clinical scores; type: in vivo, rats
Experimental: FIG. 3 is a graph illustrating the treatment scheme in an adjuvant-induced arthritis (AIA) rat model. In the prophylactic group, treatment starts from day 0 and administered every other day. In the therapeutic group, treatment starts from day 13 and was administered every other day.
Three groups (10 rats in each group) of female rats (age 8 weeks) were subject to AIA model induction and then to different treatment schemes. Specifically, 100 ug mBSA mixed with CFA was injected s.c. to flank near tail, and one dose of B. pertusiss was injected i.p. the next day to boost the immune reaction. The first of the three groups of rats were treated with DMSO (Vehicle). The second of the three groups of rats were treated with pimozide (Sigma-Aldrich) 10 mg/kg of body weight (same unit are used throughout this application) in 30% PEG300 solution via intraperitoneal injection with collagen injection starting from day 7 (Therapeutic). The last of the three groups of rats were treated with pimozide (Sigma-Aldrich) 10 mg/kg in 30% PEG300 solution via intraperitoneal injection either with collagen injection starting from day 0. As a control, a fourth group of female rats (5 rats) were spared the AIA model induction and were not treated. The inventors collected data of the weight, paw volume, and clinical scores every three days and performed statistic analysis.
The clinical scores were derived according to the scheme in Table 1.
The method used in the statistic analysis was Student's t test, unpaired, two-tailed analysis.

[2] = Prophylactic group, 10 mg/kg i.p. from day 0, starting from day 13
[3] = Therapeutic group, 10 mg/kg i.p., starting from day 17

SH2 domain of Lck, sequence (P06239 120-226 limits assumed): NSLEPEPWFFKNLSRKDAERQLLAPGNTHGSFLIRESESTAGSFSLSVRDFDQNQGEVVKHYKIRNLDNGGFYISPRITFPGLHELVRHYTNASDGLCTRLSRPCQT

For `O=C(N/N=C/c1coc2ccccc2c1=O)c1cccnc1` [nicotinohydrazide, N′-((4-Oxo-4H-chromen-3-yl)methylene)nicotinohydrazide], the IC50 (SH2 domain of STAT1) is given as greater than 500 µM and the IC50 (SH2 domain of Lck) is given as greater than 500 µM.
In the case of `O=c1[nH]c2ccccc2n1C1CCN(CCCC(c2ccc(F)cc2)c2ccc(F)cc2)CC1` [pimozide, 1-[1-[4,4-bis(4-fluorophenyl)butyl]-4-piperidinyl]-1,3-dihydro-2H-benzimidazole-2-one], the “clinical score vs Vehicle group” value [1, 2] is reported as “significantly decreased”, the “paw volume vs Vehicle group” value [1, 2] is reported as “significantly decreased” and the “clinical score vs Vehicle group” value [1, 3] is reported as “significantly decreased”. For the same molecule, the “paw volume vs Vehicle group” value [1, 3] was “significantly decreased”.
